Laboratory results from patent publication US20230012368A1 (Hoffmann-La Roche Inc., priority 2018, published 2023).
Where a name gives a salt, the structure may show the parent alone.

test system: Acinetobacter baumannii ATCC 17978; test: Antimicrobial susceptibility testing: 90% growth inhibitory concentration (IC90) determination; type: cell-based; settings: Acinetobacter baumannii, ATCC17978, 16 h, 90% growth inhibitory concentration; Acinetobacter baumannii ATCC17978; Iso-Sensitest broth, OD 600 nm over 16h; read-out: ATCC17978 IC90
In short: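 Growth of the Acinetobacter baumannii strain was followed by optical density at 600 nm every 20 minutes for 16h at 35±2° C. Inoculum was ~5×10^(5) CFU/ml in Iso-Sensitest medium, with twofold compound dilutions (e.g. 50 to 0.097 μM final). The 90% inhibitory concentration was derived in log-phase growth.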

SMILES	IC90
Cc1cc(Nc2nccn3c(-c4ccc(OC(F)F)cc4)cnc23)ccc1C(=O)NCCSc1nnnn1C [Example 176, 4-[[3-[4-(difluoromethoxy)phenyl]im-idazo[1,2-a]pyrazin-8-yl]amino]-2-methyl-N-[2-(1-methyltetrazol-5-yl)sulfanylethyl]benzamide]	520 nM
CN(CCCn1c(=O)c(=O)[nH]n(C)c1=S)C(=O)c1ccc(Nc2nccn3c(-c4ccc(OCC#N)c(F)c4F)cnc23)cc1Cl [Example 396, 2-chloro-4-((3-(4-(cyanomethoxy)-2,3-difluorophenyl)imidazo[1,2-a]pyrazin-8-yl)amino)-N-methyl-N-(3-(2-methyl-5,6-dioxo-3-thioxo-1,2,4-triazinan-4-yl)propyl)benzamide]	570 nM
CCc1cc(Nc2nccn3c(-c4ccc(Oc5ccc(F)cn5)c(F)c4F)cnc23)ccc1C(=O)NCCNC(=O)[C@H](N)CCCNC(=N)N [Example 424, N-[2-[[(2R)-2-amino-5-guanidino-pentanoyl]amino]ethyl]-4-[[3-[2,3-difluoro-4-[(5-fluoro-2-pyridyl)oxy]phenyl]imidazo [1,2-a]pyrazin-8-yl]amino]-2-ethyl-benzamide; formic acid]	900 nM
COc1ccc(-c2cnc3c(Nc4ccc(C(=O)N[C@H](C)CNC(=N)C(C)C)c(C)c4)nccn23)c(F)c1F [Example 498, 4-[[3-(2,3-difluoro-4-methoxyphenyl)imidazo[1,2-a]pyrazin-8-yl]amino]-2-methyl-#N!-[(2#R!)-1-(2-methylpropanimidoylamino)propan-2-yl]benzamide]	140 nM
COc1ccc(-c2cnc3c(Nc4ccc(C(=O)NCCCCN)c(C)c4)nccn23)cc1 [Example 194, N-(4-aminobutyl)-4-[[3-(4-methoxyphenyl)imidazo[1,2-a]pyrazin-8-yl]amino]-2-methylbenzamide;hydrochlo-ride]	360 nM
COc1ccc(-c2cnc3c(Nc4ccc(C(=O)N(C)CC5OCC(N)CO5)c(C)c4)nccn23)cc1 (stereo not drawn) [Example 153, N-((5-Amino-1,3-dioxan-2-yl)methyl)-4-((3-(4-methoxyphenyl)imidazo[1,2-a]pyrazin-8-yl)amino)-N,2-dimethylbenzamide]	530 nM
CNC(=O)c1ccc(Nc2nccn3c(-c4ccc(OC)c(F)c4)cnc23)cc1Cl [Example 22, 2-chloro-4-((3-(3-fluoro-4-methoxyphenyl)imidazo [1,2-a]pyrazin-8-yl)amino)-N-methylbenzamide]	130 nM
CCN(CC)C(=O)c1ccc(Nc2nccn3c(-c4ccc(OC)c(Cl)c4)cnc23)cc1 [Example 215, 4-[[3-(3-chloro-4-methoxyphenyl)imidazo[1,2-a]pyrazin-8-yl]amino]-N,N-diethylbenzamide]	680 nM
CCc1cc(Nc2nccn3c(-c4ccc(Cl)c(F)c4F)cnc23)ccc1C(=O)NCCNC(=O)[C@@H](N)CCCNC(=N)N [Example 341, N-[2-[[(2S)-2-amino-5-carbamimidamidopentanoyl]amino]ethyl]-4-[[3-(4-chloro-2,3-difluorophenyl)imidazo[1,2-a]pyrazin-8-yl]amino]-2-ethylbenzamide]	650 nM
CCc1cc(Nc2nccn3c(-c4ccc(Oc5ccncn5)c(F)c4F)cnc23)ccc1C(=O)N[C@@H](C)CNC(=O)[C@H](N)CCNC(=N)N [Example 458, N-[(1S)-2-[[(2R)-2-amino-4-guanidino-butanoyl]amino]-1-methyl-ethyl]-4-[[3-(2,3-difluoro-4-pyrimidin-4-yloxy-phenyl)imidazo[1,2-a]pyrazin-8-yl]amino]-2-ethyl-benzamide; formic acid]	660 nM
COc1ccc(-c2cnc3c(Nc4ccc(C(=O)N(C)Cc5ccncn5)c(C)c4)nccn23)cc1F [Example 39, 4-[[3-(3-fluoro-4-methoxy-phenyl)imidazo[1,2-a]pyrazin-8-yl]amino]-N,2-dimethyl-N-(pyrimidin-4-ylmethyl)benzamide]	240 nM
CCc1cc(Nc2nccn3c(-c4ccc(OC)c(F)c4F)cnc23)ccc1C(=O)NCCCNC(=O)[C@@H](N)CNC(=N)N [Example 359, N-[3-[[(2S)-2-amino-3-carbamimidamidopropanoyl]amino]propyl]-4-[[3-(2,3-difluoro-4-methoxyphenyl)imidazo[1,2-a]pyrazin-8-yl]amino]-2-ethylbenzamide]	60 nM
CCc1cc(Nc2nccn3c(-c4ccc(OC)c(F)c4F)cnc23)ccc1C(=O)NCCNC(=O)C(CNC(=N)N)NC(=O)[C@@H](N)CCC(=O)O (mixture of isomers) [Example 461, (4S)-4-amino-5-((1-((2-(4-((3-(2,3-difluoro-4-methoxyphenyl)imidazo[1,2-a]pyrazin-8-yl)amino)-2-ethylbenzamido)ethyl)amino)-3-guanidino-1-oxopropan-2-yl)amino)-5-oxopentanoic acid trihydrochloride]	480 nM
Cc1cc(Nc2nccn3c(-c4ccc(OC(F)F)cc4)cnc23)ccc1C(=O)N(C)CCCSc1nnnn1C [Example 178, 4-[[3-[4-(difluoromethoxy)phenyl]im-dazo[1,2-a]pyrazin-8-yl]amino]-N,2-dimethyl-N-[3-(1-methyltetrazol-5-yl)sulfanylpropyl]benzamide]	1000 nM
N#CCOc1ccc(-c2cnc3c(Nc4ccc(C(=O)NCCCCN)c(Cl)c4)nccn23)c(F)c1F [Example 519, N-(4-aminobutyl)-2-chloro-4-((3-(4-(cyanomethoxy)-2,3-difluorophenyl)imidazo[1,2-a]pyrazin-8-yl)amino)benzamide]	47 nM
COc1ccc(-c2cnc3c(Nc4ccc(C(=O)NCC5CCNC5)c(Cl)c4)nccn23)c(F)c1F (stereo not drawn) [Example 60, 2-chloro-4-[[3-(2,3-difluoro-4-methoxy-phenyl)imidazo[1,2-a]pyrazin-8-yl]amino]-N-(pyrrolidin-3-ylmethyl)benzamide]	220 nM
C/C=C/c1cc(Nc2nccn3c(-c4ccc(OC(F)F)cc4)cnc23)ccc1C(=O)NC [Example 151, (E)-4-((3-(4-(Difluoromethoxy)phenyl)imidazo[1,2-a]pyrazin-8-yl)amino)-N-methyl-2-(prop-1-en-1-yl)benzamide]	2000 nM
CNC(=O)c1ccc(Nc2nccn3c(-c4ccc(OC)c(F)c4F)cnc23)cc1C [Example 538, 4-((3-(2,3-difluoro-4-methoxyphenyl)imidazo[1,2-a]pyrazin-8-yl)amino)-N,2-dimethylbenzamide]	27 nM
COc1ccc(-c2cnc3c(Nc4ccc5c(c4)CCN(CCN(C)C)C5=O)nccn23)cc1F [Example 116, 2-[2-(dimethylamino)ethyl]-6-[[3-(3-fluoro-4-methoxy-phenyl)imidazo[1,2-a]pyrazin-8-yl]amino]-3,4-dihydroisoquinolin-1-one]	940 nM
CNC(=O)c1ccc(Nc2nccn3c(-c4ccc(OC)c(Cl)c4)cnc23)cc1 [Example 181, 4-[[3-(3-chloro-4-methoxyphenyl)imidazo[1,2-a]pyrazin-8-yl]amino]-N-methylbenzamide;2,2,2-trifluoroacetic acid]	1300 nM
CCc1cc(Nc2nccn3c(-c4ccc(OC)c(F)c4F)cnc23)ccc1C(=O)NCCC1CCNCC1 [Example 388, 4-[[3-(2,3-difluoro-4-methoxyphenyl)imidazo[1,2-a]pyrazin-8-yl]amino]-2-ethyl-N-(2-piperidin-4-ylethyl)benzamide; hydrochlo-ride]	200 nM
